Reference: ChEMBL document CHEMBL1201862, “PubChem BioAssay data set” (2004)
Activity calls are given as the source filed them.

Key:
[1] = molecular target: T1, Neuropeptide Y receptor type 1 (Homo sapiens, UniProt P25929); experiment: Fluorescence-based counterscreen for agonists of NPY-Y2: cell-based high-throughput dose response assay for agonists of NPY-Y1.; assay type: functional
T1 sequence (P25929 whole entry): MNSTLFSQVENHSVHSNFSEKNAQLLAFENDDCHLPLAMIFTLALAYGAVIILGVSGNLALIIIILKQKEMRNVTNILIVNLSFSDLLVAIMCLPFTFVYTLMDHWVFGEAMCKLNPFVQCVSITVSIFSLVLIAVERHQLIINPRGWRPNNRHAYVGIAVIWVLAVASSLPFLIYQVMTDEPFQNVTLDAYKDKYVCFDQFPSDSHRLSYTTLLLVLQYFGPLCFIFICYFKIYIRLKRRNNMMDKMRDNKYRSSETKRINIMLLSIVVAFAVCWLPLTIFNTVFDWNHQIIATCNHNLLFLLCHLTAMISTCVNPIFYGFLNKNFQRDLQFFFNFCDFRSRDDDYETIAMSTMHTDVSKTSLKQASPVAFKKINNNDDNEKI

HEK293 [2] = experiment: Fluorescence-based counterscreen for potentiators or agonists of NPY-Y2: cell-based high-throughput dose response assay to identify inhibitors of cyclic nucleotide gated ion channel (CNGC) activity. In this assay, the parental HEK293 cell line transfected with a cyclic-nucleotide gated ion channel (CNGC)-based cAMP sensor is used to measure inhibition of isoproterenol-induced CNGC activity by test compound.; assay type: functional; details: Homo sapiens
[3] = molecular target: T2, Neuropeptide Y receptor type 2 (Homo sapiens, UniProt P49146); experiment: Fluorescence-based cell-based high-throughput dose response assay for agonists of NPY-Y2. [Related pubchem assays: 1703 (Screening assay (CNGC inhibitors).), 1359 (Screening assay (NPY-Y2 potentiators or agonists).), 1304 (Screening assay (NPY-Y1 potentiators or agonists).), 1710 (Screening assay (NPY-Y2 agonists).), 1791 (Summary AID.)]; assay type: functional
T2 sequence (P49146 whole entry): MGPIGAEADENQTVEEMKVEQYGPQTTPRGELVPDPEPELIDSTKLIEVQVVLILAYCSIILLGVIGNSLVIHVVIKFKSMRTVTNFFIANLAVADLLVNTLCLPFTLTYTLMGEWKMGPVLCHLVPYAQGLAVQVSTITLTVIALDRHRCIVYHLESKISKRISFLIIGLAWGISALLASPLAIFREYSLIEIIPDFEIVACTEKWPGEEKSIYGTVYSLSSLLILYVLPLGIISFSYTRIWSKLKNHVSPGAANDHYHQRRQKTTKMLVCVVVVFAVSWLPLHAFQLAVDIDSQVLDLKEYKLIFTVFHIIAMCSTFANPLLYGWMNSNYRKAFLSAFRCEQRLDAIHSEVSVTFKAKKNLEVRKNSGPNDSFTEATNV

[4] = molecular target: Peroxisome proliferator-activated receptor gamma/Nuclear receptor corepressor 2 (Homo sapiens, UniProt P37231+Q9Y618); experiment: Counterscreen for NR2E3 inverse agonists: TR-FRET-based biochemical high throughput dose response assay to identify inverse agonists of the interaction between peroxisome proliferator-activated receptor gamma (PPARg) and nuclear receptor co-repressor 2 (NCOR2).; assay type: functional
[5] = molecular target: Photoreceptor-specific nuclear receptor (Homo sapiens, UniProt Q9Y5X4); experiment: ligands suppressing NR2E3 nuclear receptor activity – biochemical, TR-FRET, dose response (AID 463256); assay type: functional
[6] = molecular target: Luciferin 4-monooxygenase (Photinus pyralis, UniProt P08659); experiment: Counter Screen for Luciferase-based Assay Positives. [Related pubchem assays: 620, 618, 411 ]
HT-1080 = experiment: HT1080 cell viability loss – fluorescence readout (AID 620); assay type: functional, cell-based; details: Homo sapiens
Ephrin type-A receptor 4 = Ephrin type-A receptor 4 (Mus musculus, UniProt Q03137); experiment: EphA4 ligand-binding antagonists – biochemical, colorimetric, mouse EphA4, primary screen (AID 689); assay type: functional
NADPH oxidase 1 = NADPH oxidase 1 (Homo sapiens, UniProt Q9Y5S8); assay type: functional, cell-based;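 also: Cell-based assay with luminescence read-out, IC50 derived from inhibitor dose-response curves; intracellular ROS from endogenous NOX1 in intact HT29 colon cancer cells; potency of inhibitors that lower the ROS luminescence signal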
Protein skinhead-1 = molecular target: T3, Protein skinhead-1 (Caenorhabditis elegans, UniProt P34707); assay type: functional
T3 sequence (P34707 whole entry): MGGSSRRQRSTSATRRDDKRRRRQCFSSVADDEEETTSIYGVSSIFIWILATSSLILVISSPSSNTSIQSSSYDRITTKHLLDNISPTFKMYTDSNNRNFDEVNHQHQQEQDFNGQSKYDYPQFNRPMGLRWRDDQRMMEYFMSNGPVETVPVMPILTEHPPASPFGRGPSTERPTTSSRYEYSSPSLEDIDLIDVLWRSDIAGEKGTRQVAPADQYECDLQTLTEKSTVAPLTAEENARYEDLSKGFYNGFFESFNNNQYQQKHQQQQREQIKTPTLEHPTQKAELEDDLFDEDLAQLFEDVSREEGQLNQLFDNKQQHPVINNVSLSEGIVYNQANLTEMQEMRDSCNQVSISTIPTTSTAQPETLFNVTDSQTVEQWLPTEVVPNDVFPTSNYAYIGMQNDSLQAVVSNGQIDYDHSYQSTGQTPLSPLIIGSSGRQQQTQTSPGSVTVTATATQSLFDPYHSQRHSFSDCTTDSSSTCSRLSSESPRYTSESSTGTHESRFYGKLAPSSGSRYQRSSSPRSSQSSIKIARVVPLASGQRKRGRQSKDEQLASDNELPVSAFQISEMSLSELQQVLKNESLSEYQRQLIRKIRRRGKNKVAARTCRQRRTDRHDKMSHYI

[7] = molecular target: Heat shock protein HSP 90-alpha (Homo sapiens, UniProt P07900); experiment: Luminescence-based dose response biochemical high throughput screening assay for inhibitors of the Heat Shock Protein 90 (HSP90). [Related pubchem assays: 1831 (Summary AID.), 1846 (Confirmation screen.), 1789 (Primary screen.)]
[8] = M. tuberculosis H37Rv growth inhibitors, H37Rv strain (AID 1626); assay type: functional
[9] = tested on: Streptococcus sp. 'group A'; experiment: Streptococcus pyogenes SK(-)GAS viability under kanamycin – luminescence, BacTiterGlo, confirmation, counter-screen for streptokinase expression inhibitor project, dose response (AID 1900); assay type: functional, organism-based
[10] = mitochondrial function rescue without frataxin homolog – Friedreich's ataxia, plus single-dose screen, dose response (AID 1465); assay type: functional;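 also: yeast depleted of Yfh1p frataxin homolog grown on glycerol needing respiration; WST-1 tetrazolium dye reduction as measure of cellular dehydrogenase metabolic activity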
Streptococcus = experiment: GAS UMAA2166 growth inhibition – luminescence, BacTiterGlo, counter-screen for streptokinase expression inhibitor project, dose response (AID 1915); assay type: functional, organism-based;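 also: potency for reduction of bacterial viability or growth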
[11] = molecular target: Mitogen-activated protein kinase 10 (Homo sapiens, UniProt P53779); experiment: Dose response biochemical screening assay for inhibitors of c-Jun N-Terminal Kinase 3 (JNK3). [Related pubchem assays: 746 ]
[12] = molecular target: E3 ubiquitin-protein ligase Mdm2 (Homo sapiens, UniProt Q00987); experiment: MDM2-luc reporter signal enhancers, multi-concentration potency testing, MDM2 ubiquitin-protein ligase inhibitor program, whole-cell format, luminescence detection, 384-well microplate (AID 1394); assay type: functional;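 also: MDM2 E3 inhibitors raise luminescence so EC50 is for signal enhancement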
Large T antigen = Large T antigen (Simian virus 40, UniProt P03070); assay type: functional, Betapolyomavirus macacae;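 also: Confirmatory-stage PubChem screen for compounds that inhibit SV40 T antigen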
[13] = molecular target: Mannose-6-phosphate isomerase (Homo sapiens, UniProt P34949); experiment: MPI inhibition at elevated mannose 6-phosphate – biochemical, fluorescence intensity, high mannose 6-phosphate, primary screen (AID 1220)
[14] = molecular target: Eukaryotic translation initiation factor 4E (Mus musculus, UniProt P63073); experiment: blockers of eIF4G binding by eIF4E – biochemical, TR-FRET, dose response (AID 855); assay type: functional;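 also: potency for disrupting eIF4E binding to eIF4GI seen as loss of FRET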
[15] = molecular target: DNA dC->dU-editing enzyme APOBEC-3G (Homo sapiens, UniProt Q9HC16); experiment: Dose Response confirmation of small molecule APOBEC3G DNA Deaminase Inhibitors via a fluorescence-based single-stranded DNA deaminase assay. [Related pubchem assays (depositor defined):AID493012, AID493028]; assay type: functional
[16] = Counterscreen for activators of the function of SWI/SNF related, matrix associated, actin dependent regulator of chromatin, subfamily a, member 2 (SMARCA2, BRM): Luminescence-based cell-based high throughput dose response assay to identify non-selective compounds using the VP16 reporter assay.; assay type: functional
[17] = molecular target: T4, Acyl-homoserine lactone acylase PvdQ (Pseudomonas aeruginosa (strain LESB58), UniProt Q9I194); experiment: PvdQ acylase enzyme activity blockers – biochemical, fluorescence, plate reader and imaging, cherry-picks, dose response (AID 493231)
T4 sequence (Q9I194 whole entry): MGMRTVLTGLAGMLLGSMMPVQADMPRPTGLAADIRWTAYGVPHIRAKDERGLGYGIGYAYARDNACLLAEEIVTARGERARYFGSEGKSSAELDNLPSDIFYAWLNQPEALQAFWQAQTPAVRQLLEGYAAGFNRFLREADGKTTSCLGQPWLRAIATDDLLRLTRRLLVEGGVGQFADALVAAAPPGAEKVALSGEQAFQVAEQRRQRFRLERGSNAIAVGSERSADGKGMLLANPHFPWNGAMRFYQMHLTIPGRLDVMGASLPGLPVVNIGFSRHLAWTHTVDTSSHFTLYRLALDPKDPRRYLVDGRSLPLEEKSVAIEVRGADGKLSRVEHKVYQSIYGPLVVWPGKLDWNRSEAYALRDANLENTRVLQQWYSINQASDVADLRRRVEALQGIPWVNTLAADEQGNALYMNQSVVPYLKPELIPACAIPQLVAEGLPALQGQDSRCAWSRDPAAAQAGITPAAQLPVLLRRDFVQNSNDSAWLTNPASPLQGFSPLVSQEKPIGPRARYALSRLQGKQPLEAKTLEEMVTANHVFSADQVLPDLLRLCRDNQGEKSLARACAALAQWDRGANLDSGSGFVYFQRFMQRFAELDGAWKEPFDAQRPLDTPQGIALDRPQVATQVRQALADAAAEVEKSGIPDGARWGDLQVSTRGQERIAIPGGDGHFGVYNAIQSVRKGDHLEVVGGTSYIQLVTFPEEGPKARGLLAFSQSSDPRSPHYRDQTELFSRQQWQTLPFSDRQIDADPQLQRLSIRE

HEK293 [18] = experiment: EBV LMP1 TES2 canonical NF-kB signalling blockers – cell-based, HEK293, luciferase, cherry-pick, dose response (AID 588343); assay type: functional; details: Homo sapiens
[19] = molecular target: SWI/SNF-related matrix-associated actin-dependent regulator of chromatin subfamily A member 2 (Homo sapiens, UniProt P51531); experiment: Luminescence-based cell-based high throughput dose response assay to identify activators of the function of SWI/SNF related, matrix associated, actin dependent regulator of chromatin, subfamily a, member 2 (SMARCA2, BRM).; assay type: functional

E3 ubiquitin-protein ligase Mdm2, sequence (Q00987 whole entry): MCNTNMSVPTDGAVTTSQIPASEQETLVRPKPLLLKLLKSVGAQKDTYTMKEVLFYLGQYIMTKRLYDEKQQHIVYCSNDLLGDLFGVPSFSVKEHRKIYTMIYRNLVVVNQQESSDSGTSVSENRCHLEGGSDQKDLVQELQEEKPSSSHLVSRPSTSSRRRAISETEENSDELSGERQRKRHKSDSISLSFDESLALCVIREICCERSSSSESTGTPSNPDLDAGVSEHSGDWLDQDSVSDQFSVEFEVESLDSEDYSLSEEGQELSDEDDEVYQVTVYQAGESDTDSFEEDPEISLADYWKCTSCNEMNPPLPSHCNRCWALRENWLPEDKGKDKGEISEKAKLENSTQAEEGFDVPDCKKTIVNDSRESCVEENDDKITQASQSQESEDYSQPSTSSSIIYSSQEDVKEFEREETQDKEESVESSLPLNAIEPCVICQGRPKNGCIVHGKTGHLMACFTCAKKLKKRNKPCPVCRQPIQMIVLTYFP
NADPH oxidase 1, sequence (Q9Y5S8 whole entry): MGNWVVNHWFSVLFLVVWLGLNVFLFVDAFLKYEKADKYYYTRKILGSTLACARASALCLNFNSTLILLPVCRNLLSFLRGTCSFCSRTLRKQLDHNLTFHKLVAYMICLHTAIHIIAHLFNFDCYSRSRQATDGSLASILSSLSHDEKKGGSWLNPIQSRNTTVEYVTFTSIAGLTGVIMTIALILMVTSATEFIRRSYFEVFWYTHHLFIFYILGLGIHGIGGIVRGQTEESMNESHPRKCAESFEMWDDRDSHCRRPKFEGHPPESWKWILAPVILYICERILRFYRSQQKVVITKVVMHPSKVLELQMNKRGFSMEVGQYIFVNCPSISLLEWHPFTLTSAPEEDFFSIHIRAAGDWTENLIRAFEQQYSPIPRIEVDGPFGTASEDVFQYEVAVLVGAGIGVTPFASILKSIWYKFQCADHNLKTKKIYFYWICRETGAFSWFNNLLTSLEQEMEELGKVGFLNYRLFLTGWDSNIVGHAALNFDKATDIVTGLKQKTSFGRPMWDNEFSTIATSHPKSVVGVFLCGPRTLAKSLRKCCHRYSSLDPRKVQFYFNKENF
Luciferin 4-monooxygenase, sequence (P08659 whole entry): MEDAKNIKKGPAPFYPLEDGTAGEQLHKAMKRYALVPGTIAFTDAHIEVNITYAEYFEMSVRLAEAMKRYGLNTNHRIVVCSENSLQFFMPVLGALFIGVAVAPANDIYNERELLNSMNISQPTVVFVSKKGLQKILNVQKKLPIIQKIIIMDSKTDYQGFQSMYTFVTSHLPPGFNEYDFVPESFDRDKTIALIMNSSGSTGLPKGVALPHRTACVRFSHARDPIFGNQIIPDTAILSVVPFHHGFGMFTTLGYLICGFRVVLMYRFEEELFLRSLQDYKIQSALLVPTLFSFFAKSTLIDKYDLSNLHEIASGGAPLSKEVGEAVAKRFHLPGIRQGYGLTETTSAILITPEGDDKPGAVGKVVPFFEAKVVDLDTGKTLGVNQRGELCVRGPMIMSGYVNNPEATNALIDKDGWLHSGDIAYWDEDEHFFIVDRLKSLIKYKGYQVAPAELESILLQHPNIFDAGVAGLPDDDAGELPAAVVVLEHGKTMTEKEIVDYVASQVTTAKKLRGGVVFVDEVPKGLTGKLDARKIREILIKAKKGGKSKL
Ephrin type-A receptor 4, sequence (Q03137 whole entry): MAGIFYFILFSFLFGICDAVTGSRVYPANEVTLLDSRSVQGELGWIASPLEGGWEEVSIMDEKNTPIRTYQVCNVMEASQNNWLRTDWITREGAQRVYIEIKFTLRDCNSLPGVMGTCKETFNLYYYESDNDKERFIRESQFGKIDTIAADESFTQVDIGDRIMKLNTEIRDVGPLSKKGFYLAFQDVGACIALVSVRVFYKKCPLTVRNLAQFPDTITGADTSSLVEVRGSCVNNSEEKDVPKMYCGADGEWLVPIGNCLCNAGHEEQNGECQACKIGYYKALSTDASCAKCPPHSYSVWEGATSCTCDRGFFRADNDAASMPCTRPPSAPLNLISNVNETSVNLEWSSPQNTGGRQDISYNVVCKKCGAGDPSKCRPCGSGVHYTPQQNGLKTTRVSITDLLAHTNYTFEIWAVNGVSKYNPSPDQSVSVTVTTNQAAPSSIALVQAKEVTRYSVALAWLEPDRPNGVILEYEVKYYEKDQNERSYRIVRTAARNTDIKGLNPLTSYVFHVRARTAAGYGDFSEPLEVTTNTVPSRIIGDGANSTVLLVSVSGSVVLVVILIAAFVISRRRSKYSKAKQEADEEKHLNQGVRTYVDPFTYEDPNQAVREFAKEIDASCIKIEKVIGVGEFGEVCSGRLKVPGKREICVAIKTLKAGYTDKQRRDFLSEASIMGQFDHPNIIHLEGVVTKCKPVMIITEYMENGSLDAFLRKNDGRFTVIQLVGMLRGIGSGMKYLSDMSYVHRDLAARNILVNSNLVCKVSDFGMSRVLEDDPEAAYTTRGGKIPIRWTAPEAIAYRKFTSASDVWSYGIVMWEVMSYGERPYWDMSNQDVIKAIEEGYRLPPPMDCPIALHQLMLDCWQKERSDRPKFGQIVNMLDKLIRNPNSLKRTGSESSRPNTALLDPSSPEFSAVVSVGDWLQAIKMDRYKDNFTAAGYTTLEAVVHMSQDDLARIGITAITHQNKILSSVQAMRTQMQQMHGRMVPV
Mannose-6-phosphate isomerase, sequence (P34949 whole entry): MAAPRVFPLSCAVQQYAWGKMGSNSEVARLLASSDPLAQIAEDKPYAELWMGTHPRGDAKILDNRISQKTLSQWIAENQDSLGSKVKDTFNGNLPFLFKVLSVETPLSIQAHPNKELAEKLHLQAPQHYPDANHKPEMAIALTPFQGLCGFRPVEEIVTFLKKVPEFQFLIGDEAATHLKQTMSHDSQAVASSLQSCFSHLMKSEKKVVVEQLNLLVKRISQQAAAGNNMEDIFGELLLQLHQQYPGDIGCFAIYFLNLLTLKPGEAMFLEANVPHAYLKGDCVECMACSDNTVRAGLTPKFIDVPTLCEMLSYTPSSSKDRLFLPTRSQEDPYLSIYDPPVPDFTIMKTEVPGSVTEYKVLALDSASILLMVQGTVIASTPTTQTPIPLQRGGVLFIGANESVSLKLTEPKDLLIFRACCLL
Photoreceptor-specific nuclear receptor, sequence (Q9Y5X4 whole entry): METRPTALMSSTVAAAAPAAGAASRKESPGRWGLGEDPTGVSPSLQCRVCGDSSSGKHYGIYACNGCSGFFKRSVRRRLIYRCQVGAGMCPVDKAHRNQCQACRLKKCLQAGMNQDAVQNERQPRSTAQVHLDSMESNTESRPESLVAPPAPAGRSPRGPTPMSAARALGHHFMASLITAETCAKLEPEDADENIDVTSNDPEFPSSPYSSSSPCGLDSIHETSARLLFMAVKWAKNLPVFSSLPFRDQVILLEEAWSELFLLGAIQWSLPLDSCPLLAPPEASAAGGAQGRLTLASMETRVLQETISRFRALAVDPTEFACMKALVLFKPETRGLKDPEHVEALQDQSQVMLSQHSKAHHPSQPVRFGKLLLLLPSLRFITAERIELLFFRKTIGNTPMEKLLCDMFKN
DNA dC->dU-editing enzyme APOBEC-3G, sequence (Q9HC16 whole entry): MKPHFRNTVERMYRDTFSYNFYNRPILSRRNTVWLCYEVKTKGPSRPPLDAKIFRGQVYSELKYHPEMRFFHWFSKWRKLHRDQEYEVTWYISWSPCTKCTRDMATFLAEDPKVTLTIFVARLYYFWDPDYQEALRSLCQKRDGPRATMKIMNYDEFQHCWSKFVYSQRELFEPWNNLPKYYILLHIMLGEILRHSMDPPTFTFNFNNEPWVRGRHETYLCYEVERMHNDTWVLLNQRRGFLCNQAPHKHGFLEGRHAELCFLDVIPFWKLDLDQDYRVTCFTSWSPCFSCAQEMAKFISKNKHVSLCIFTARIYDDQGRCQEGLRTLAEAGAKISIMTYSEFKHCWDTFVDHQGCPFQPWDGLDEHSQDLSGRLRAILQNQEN
Large T antigen, sequence (P03070 whole entry): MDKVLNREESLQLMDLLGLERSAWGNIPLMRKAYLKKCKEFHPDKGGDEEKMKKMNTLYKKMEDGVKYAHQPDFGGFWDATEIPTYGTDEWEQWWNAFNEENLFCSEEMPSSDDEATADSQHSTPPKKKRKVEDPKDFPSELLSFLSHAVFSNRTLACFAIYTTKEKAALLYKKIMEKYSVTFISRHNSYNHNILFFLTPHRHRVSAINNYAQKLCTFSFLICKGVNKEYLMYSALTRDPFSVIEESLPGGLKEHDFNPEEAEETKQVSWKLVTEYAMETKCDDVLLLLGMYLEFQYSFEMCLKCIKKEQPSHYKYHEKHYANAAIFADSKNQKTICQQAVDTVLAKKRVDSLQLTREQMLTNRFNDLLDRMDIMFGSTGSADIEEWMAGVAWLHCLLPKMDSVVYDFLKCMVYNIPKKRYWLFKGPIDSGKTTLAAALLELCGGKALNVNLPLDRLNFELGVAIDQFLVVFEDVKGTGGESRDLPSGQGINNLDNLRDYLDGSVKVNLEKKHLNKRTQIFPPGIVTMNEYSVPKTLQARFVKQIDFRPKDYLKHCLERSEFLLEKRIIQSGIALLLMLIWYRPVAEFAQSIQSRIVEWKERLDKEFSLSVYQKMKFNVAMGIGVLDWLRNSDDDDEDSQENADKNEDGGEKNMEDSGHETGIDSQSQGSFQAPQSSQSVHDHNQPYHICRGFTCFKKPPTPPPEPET
Eukaryotic translation initiation factor 4E, sequence (P63073 whole entry): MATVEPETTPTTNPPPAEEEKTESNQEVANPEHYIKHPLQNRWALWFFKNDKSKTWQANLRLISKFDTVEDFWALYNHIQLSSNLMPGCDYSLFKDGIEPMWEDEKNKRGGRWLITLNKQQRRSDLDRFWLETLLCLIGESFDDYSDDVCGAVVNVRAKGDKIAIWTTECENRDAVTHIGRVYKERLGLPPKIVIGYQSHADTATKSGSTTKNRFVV

Which EC50 [1] does the source give for Cc1cc2c(cc1C)N(C(=O)CSC1=NCCS1)C(C)(C)c1ssc(=S)c1-2 here?
The EC50 was 22.2 µM (not active).

What about the EC50 (HEK293 [2]) of the same molecule?
Its EC50 is > 35.4 µM (not active).

And the EC50 [3]?
Its EC50 is 32 µM (not active).

Which IC50 [4] does the source give for CC(=O)c1sc(NC(=O)CCCOc2ccc(Cl)cc2)nc1C here?
The IC50 was 3.5 µM (active).

What about the IC50 [5] of the same molecule?
Its IC50 is 4.49 µM (active).

Which results are given for O=c1c2ccccc2nnn1CSc1nnc2sc3ccccc3n12?
EC50 [6]: 0.52 µM (active); EC50 (HT-1080): > 50 µM (not active)

For CCc1cccc2c(C(=O)CSc3nnc(-c4ccoc4C)n3C)c[nH]c12, which IC50 (Ephrin type-A receptor 4) is on record?
The IC50 was 12.7 µM (active).

Which IC50 (NADPH oxidase 1) does the source give for O=C(Oc1ccc([N+](=O)[O-])cc1)c1cc2ccccc2s1 here?
Its IC50 is > 17 µM (not active).

Which IC50 (NADPH oxidase 1) does the source give for O=C(NNC(=O)Nc1ccc(Cl)cc1)Nc1ccc(Cl)cc1 here?
Its IC50 is > 17 µM (not active).

What does the source list for Cc1cc2ccccc2n1CCNC(=O)c1ccccc1?
IC50 (Protein skinhead-1): > 100 µM (inactive); IC50 (Ephrin type-A receptor 4): 32.7 µM (active); IC50 [7]: 2.52 µM (active)

Which IC50 [8] does the source give for Cc1cc(C)cc(OCc2nnc(SCC(=O)OC(C)C)o2)c1 here?
Its IC50 is > 100 µM (active).

Which EC50 [9] does the source give for COc1cc([N+](=O)[O-])cc(/C=N\NC(=O)C2COc3ccccc3O2)c1O (stereo not given) here?
The EC50 was 2.97 µM (active).

What about the EC50 [10] of the same molecule?
The EC50 was > 100 µM (active).

And the EC50 (Streptococcus)?
Its EC50 is 3.33 µM (active).

For O=C(CCCCCn1c(=S)[nH]c2ccccc2c1=O)N1CCC2(CC1)OCCO2, which IC50 [11] is on record?
The IC50 was 29.7 µM (not active).

For CCOC(=O)Cn1nnnc1C, which EC50 [12] is on record?
Its EC50 is 827 µM (not active).

With CC(C)(O)C1Cc2cc(/C=C/C(=O)O)c(O)cc2O1 (stereo not given) as the molecule, how does the IC50 (Large T antigen) read?
The IC50 was 38.3 µM (active).

And the IC50 [13]?
The IC50 was 8.63 µM (active).

What about the IC50 [14] of the same molecule?
The IC50 was 30.4 µM (active).

What about the IC50 [15] of the same molecule?
Its IC50 is 38.2 µM (active).

For Cc1ccc(S(=O)(=O)N2CCN(C(=O)CC(C)C)CC2)cc1, which EC50 [12] is on record?
The EC50 was 7.17 µM (not active).

With O=[N+]([O-])c1cc(C(F)(F)F)cc([N+](=O)[O-])c1NCCN=C(S)Nc1ccc(Cl)c(Cl)c1 as the molecule, how does the EC50 [9] read?
Its EC50 is 4.03 µM (active).

And the EC50 (HEK293 [2])?
The EC50 was 7.47 µM (active).

What about the EC50 (Streptococcus) of the same molecule?
Its EC50 is 6.5 µM (active).

What does the source list for COc1ccccc1NC(=O)CN1CCN(C2c3ccccc3-c3ccccc32)CC1?
IC50 [8]: > 100 µM (active); IC50 (Protein skinhead-1): > 100 µM (inactive)

For CCOc1ccc(NC(=O)c2cnsn2)cc1, which EC50 [6] is on record?
The EC50 was 48.3 µM (active).

What about the EC50 [16] of the same molecule?
The EC50 was > 91.2 µM (inactive).

And the AC50 [17]?
The AC50 was 81 µM (active).

What about the EC50 (HT-1080) of the same molecule?
The EC50 was > 50 µM (not active).

And the AC50 (HEK293 [18])?
Its AC50 is 5.39 µM (active).

And the EC50 [19]?
The EC50 was > 91.2 µM (inactive).
